Seven compounds from patent publication US9302998B2, “Aryl triazole compounds with antitumoural activity” (SIGMA-TAU RESEARCH SWITZERLAND S.A., priority 2010, dated 2016) can be followed below.

The test system of one data set is A431 epidermoid. The data set can be described thus: Sulphorodamine B test at single concentration, A431. The data set is classed as cell-based. Conditions: Homo sapiens, A-431; 500 nM, 72 h. The method, then: (§1) The antiproliferative activity of novel Hsp90 inhibitors was also evaluated on various cancerous cell lines by means of the sulphorodamine B test (i.e., NCI-H460 non-small cell lung carcinoma, A431 epidermoid, A2780 ovarian, MDA-MB436 triple-negative breast, U87MG glioblastoma, A498 renal, HCT116 colon, MeWo melanoma, MiaPaCa2 pancreas, HeLa cervix uteri, NB4 promyelocytic leukemia). NCI-H460, A431, MDA-MB436, A2780, A498, HeLa, NB4 tumour cells were grown in RPMI 1640 containing 10% fetal bovine serum (i.e., FBS from GIBCO), L-glutamine, and 50 μg/ml gentamycin sulfate.
(§2) All cell lines were maintained in a 37° C. incubator with saturated humidity and an atmosphere containing 95% air and 5% CO2, and were sub-cultured every 2-3 days. Tumour cells were seeded in 96-well tissue culture plates at approximately 10% confluence and were allowed to attach and recover for 24 h.
(§3) Varying concentrations of the drugs were then added to each well to calculate their IC50 value (the concentration which inhibits the 50% of cell survival). The plates were incubated at 37° C. for 72 h. At the end of the treatment, the plates were washed by remotion of the supernatant and addition of PBS 3 times. 200 μl PBS and 50 μl of cold 80% trichloroacetic acid (TCA) were added. The plates were incubated on ice for at least 1 h. TCA was removed, the plates were washed 3 times by immersion in distilled-water and dried on paper and at 40° C. for […]. Then 200 μl of 0.4% sulphorodamine B in 1% acetic acid were added. The plates were incubated at room temperature for 30 min. Sulphorodamine B was removed, the plates were washed by immersion in 1% acetic acid for 3 times, then they were dried on paper and at 40° C. for 5 min. Then, 200 μl Tris 10 mM were added, the plates were kept under stirring for 20 min. The cell survival was determined as optical density by a Multiskan […] at 540 nm. The amount of cells killed was calculated as the percentage decrease in sulphorodamine B binding compared with control cultures.
(§4) The other cell lines were screened against one single concentration of the various inhibitors (i.e., 500 nM), all experiments being made in octuplicate, following the protocol described at example 35. Since NB4 cell line was grown in suspension, a further step of centrifugation (i.e., 1600 g for 10 min) was added after the 72 hour incubation period.

Another data set concerns MeWo melanoma. The data set can be described thus: Sulphorodamine B test at single concentration, MeWo. The data set is classed as cell-based. Conditions: Homo sapiens, 500 nM, 72 h. The method, then: as §1
(§5) MeWo and U87-MG cells were cultured in Eagle's Minimum Essential Medium (i.e., EMEM) containing 10% FBS, L-glutamine, 1 mM sodium pyruvate, 0.1 mM non-essential amino acids, 1.5 g/l sodium bicarbonate, and 50 μg/ml gentamycin sulphate.
as §2, §3, §4

The test system of data set [1] is NCI-H460 non-small cell lung carcinoma. The data set can be described thus: Cytotoxicity assay, sulphorodamine B test, NCI-H460. The class given is cell-based. The conditions noted are these: for IC50: Homo sapiens, NCI-H460, 72 h, sulphorodamine B. The method, then: as §1, §2, §3
The next data set addresses T1, Hsp90 (Homo sapiens, UniProt P07900).
T1 construct: purchased Stressgen SPP-776
Nature of the data set: Fluorescence Polarization (FP) binding, GM-BODIPY displacement from Hsp90. The conditions noted are these: GM-BODIPY tracer, 4° C. for 4 hours. The method, then:
GM-BODIPY (PerkinElmer, CUSN60342000MG) was previously dissolved in DMSO to obtain 10 mM stock solutions and kept at −20° C. until use.
Hsp90 (Stressgen, SPP-776), was previously dissolved in assay buffer (HFB) to form 2.2 μM stock solutions and kept at −80° C. until use.
The compounds were previously dissolved in DMSO to obtain stock solutions and kept at −20° C. The day of experiment, the compounds were prepared by serial dilutions in assay buffer (HFB) containing 20 mM HEPES (K) pH 7.3, 50 mM KCl, 5 mM MgCl2, 20 mM Na2MoO4 and 0.01% NP40. Before each use, 0.1 mg/ml Bovine Gamma globulin and 2 mM DTT were freshly added.
Fluorescence Polarization (FP) was performed in Opti-Plate™-96F well plates (Perkin Elmer, Zaventem, Belgium) using a plate reader (Wallac Envision 2101 multilabel reader, Perkin Elmer, Zaventem, Belgium). To evaluate the binding affinity of the molecules, 50 μl of the GM-BODIPY solution (100 nM) were added to 125 nM of Hsp90 in the presence of 5 μl of the test compounds at increasing concentrations. The plate was mixed on a shaker at 4° C. for 4 hours, and the FP values in mP (millipolarization units) were recorded. The IC50 values were calculated as the inhibitor concentration where 50% of the tracer is displaced; each data point is the result of the average of triplicate wells, and was determined from a plot using nonlinear least-squares analysis. Curve fitting was performed using
Prism GraphPad software program (GraphPad software, Inc., San Diego, Calif.).
For orientation: Polarisation of emitted light reports the rotation of a fluorescent probe.

The subject of data set [2] is NB4 promyelocytic leukemia. The data set can be described thus: Sulphorodamine B test at single concentration, NB4. The data set is classed as cell-based. The conditions noted are these: 500 nM, 72 h, suspension cells. The method, then: as §1, §2, §3, §4
The subject of data set [3] is MDA-MB436 triple-negative breast. Nature of the data set: Sulphorodamine B test at single concentration, MDA-MB436. Conditions: Homo sapiens, MDA-MB-436; 500 nM, 72 h. The data set is classed as cell-based. The method, then: as §1, §2, §3, §4
The test system of the next data set is HeLa cervix uteri. Nature of the data set: Sulphorodamine B test at single concentration, HeLa. Conditions: Homo sapiens, 500 nM, 72 h. The class given is cell-based. The method, then: as §1, §2, §3, §4
The next data set deals with A2780 ovarian. Nature of the data set: Sulphorodamine B test at single concentration, A2780. The data set is classed as cell-based. The conditions noted are these: Homo sapiens, 500 nM, 72 h. The method, then: as §1, §2, §3, §4
The next data set concerns A498 renal. Nature of the data set: Sulphorodamine B test at single concentration, A498. The data set is classed as cell-based. The conditions noted are these: Homo sapiens, 500 nM, 72 h. The method, then: as §1, §2, §3, §4
For the next data set, the system named is U87MG glioblastoma. Nature of the data set: Sulphorodamine B test at single concentration, U87MG. The data set is classed as cell-based. The conditions noted are these: Homo sapiens, U-87 MG; 500 nM, 72 h. The method, then: as §1, §5, §2, §3, §4
The next data set relates to HCT116 colon. The data set can be described thus: Sulphorodamine B test at single concentration, HCT116. The data set is classed as cell-based. The conditions noted are these: Homo sapiens, HCT-116; 500 nM, 72 h. The method, then: as §1
HCT116 cells were cultured in McCoy's medium containing 10% FBS, L-glutamine, and 50 μg/ml gentamycin sulfate.
as §2, §3, §4

The subject of another data set is MiaPaCa2 pancreas. The data set can be described thus: Sulphorodamine B test at single concentration, MiaPaCa2. The conditions noted are these: Homo sapiens, MIA PaCa-2; 500 nM, 72 h. The data set is classed as cell-based. The method, then:
as §1
MiaPaCa2 cells were cultured in DMEM medium containing 10% FBS, L-glutamine, and 50 μg/ml gentamycin sulfate.
as §2, §3, §4

The inhibition is the percentage by which the read-out fell short of the control. A low value points to a weak effect. As a reminder, the IC50 is the midpoint of a concentration-inhibition curve. Low readings indicate greater potency in that assay, high ones weaker potency in that assay.

For the compound `CCNC(=O)c1nnn(-c2cc(C(C)C)c(O)cc2O)c1-c1ccc(CNCC2CCCCC2)cc1` [Example 15, 5-{4-[(cyclohexylmethyl-amino)-methyl]-phenyl}-1-(2,4-dihydroxy-5-isopropyl-phenyl)-1H-[1,2,3]triazole-4-carboxylic acid ethylamide], the inhibition at 0.5 µM (in the data set on A431 epidermoid; in the data set with MeWo melanoma; in data set [2]; in data set [3]; with HeLa cervix uteri; in the data set on A2780 ovarian) was at least 50% in each case. Further, the inhibition at 0.5 µM in the data set on A498 renal, in the data set on U87MG glioblastoma, in the data set with HCT116 colon and in the data set on MiaPaCa2 pancreas was at least 50% each time. For the same compound, the IC50 (in data set [1]; on Hsp90) was below 50 nM in each case.

Turning to `CCNC(=O)c1nnn(-c2cc(C(C)C)c(O)cc2O)c1-c1ccc(CN(CC)CCO)cc1` [Example 7, 1-(2,4-dihydroxy-5-isopropyl-phenyl)-5-(4-{[ethyl-(2-hydroxy-ethyl)-amino]-methyl}-phenyl)-1H-[1,2,3]triazole-4-carboxylic acid ethylamide], the inhibition at 0.5 µM (with A431 epidermoid; in the data set on MeWo melanoma; in data set [2]; in data set [3]; with HeLa cervix uteri; in the data set with A2780 ovarian) was at least 50% in each case. Besides, the inhibition at 0.5 µM in the data set with A498 renal, in the data set on U87MG glioblastoma, in the data set with HCT116 colon and in the data set on MiaPaCa2 pancreas was at least 50% in each case. Also, the IC50 in data set [1] was 50 to 100 nM; at Hsp90 it was below 50 nM.

In the case of `Oc1cc(O)c(-n2nncc2-c2ccc(F)cc2)cc1Cl` [Example 33, 4-chloro-6-[5-(4-fluoro-phenyl)-[1,2,3]triazol-1-yl]-benzene-1,3-diol, reference compound], the inhibition at 0.5 µM (in the data set with A431 epidermoid; in the data set with MeWo melanoma; in data set [2]; in [3]; with HeLa cervix uteri; in the data set on A2780 ovarian) was below 30% throughout. In addition, the inhibition at 0.5 µM with A498 renal, with U87MG glioblastoma, in the data set with HCT116 colon and in the data set with MiaPaCa2 pancreas was below 30% throughout. Moreover, the “cytotoxic activity against NCI-H460 NSCLC (in words)” value in data set [1] was “totally deprived of any interesting biological activity”. In addition, the IC50 in data set [1] is above 1000 nM; at Hsp90, above 500 nM.

For the compound `CCOC(=O)c1nnn(-c2cc(Cl)c(O)cc2O)c1-c1ccc(F)cc1` [Example 32, 1-(5-chloro-2,4-dihydroxy-phenyl)-5-(4-fluoro-phenyl)-1H-[1,2,3]triazole-4-carboxylic acid ethyl ester, reference compound], the inhibition at 0.5 µM in the data set on A431 epidermoid is below 30%; in the data set on MeWo melanoma, below 30%; in data set [2], 30 to 50%; in data set [3], below 30%; with HeLa cervix uteri it was below 30%; with A2780 ovarian, below 30%. The inhibition at 0.5 µM in the data set on A498 renal, in the data set with U87MG glioblastoma, with HCT116 colon and in the data set on MiaPaCa2 pancreas was below 30% each time. Also, the “cytotoxic activity against NCI-H460 NSCLC (in words)” value in data set [1] is recorded as “totally deprived of any interesting biological activity”. Moreover, the results for the IC50 (in data set [1]; on Hsp90) were above 1000 nM and above 500 nM, respectively.

Turning to `CCNC(=O)c1nnn(-c2cc(C(C)C)c(O)cc2O)c1-c1ccc(CN2CCCC2)cc1` [Example 21, 1-(2,4-dihydroxy-5-isopropyl-phenyl)-5-(4-pyrrolidin-1-ylmethyl-phenyl)-1H-[1,2,3]triazole-4-carboxylic acid ethylamide], the inhibition at 0.5 µM (in the data set with A431 epidermoid; in the data set on MeWo melanoma; in data set [2]; in [3]; in the data set on HeLa cervix uteri; in the data set with A2780 ovarian) was at least 50% in each case. Further, the inhibition at 0.5 µM in the data set on A498 renal, with U87MG glioblastoma, with HCT116 colon and in the data set with MiaPaCa2 pancreas was at least 50% throughout. In addition, the half-inhibitory concentration (IC50) at Hsp90 is below 50 nM.

Take `CCNC(=O)c1nnn(-c2cc(C(C)C)c(O)cc2O)c1-c1ccc(Cn2ccnc2)cc1` [Example 22, 1-(2,4-dihydroxy-5-isopropyl-phenyl)-5-(4-imidazol-1-ylmethyl-phenyl)-1H-[1,2,3]triazole-4-carboxylic acid ethylamide]: the inhibition at 0.5 µM (in the data set on A431 epidermoid; in the data set with MeWo melanoma; in data set [2]; in [3]; in the data set with HeLa cervix uteri; with A2780 ovarian) was at least 50% in each case. In addition, the inhibition at 0.5 µM in the data set with A498 renal, in the data set with U87MG glioblastoma, in the data set on HCT116 colon and in the data set on MiaPaCa2 pancreas was at least 50% in each case. The same compound returned an IC50 at Hsp90 below 50 nM.

Consider `CCNC(=O)c1nnn(-c2cc(C(C)C)c(O)cc2O)c1-c1ccc(CN2CCC(N(C)C)CC2)cc1` [Example 13, 1-(2,4-dihydroxy-5-isopropyl-phenyl)-5-[4-(4-dimethylamino-piperidin-1-ylmethyl)-phenyl]-1H-[1,2,3]triazole-4-carboxylic acid ethylamide], for which the inhibition at 0.5 µM with A431 epidermoid is at least 50%; in the data set on MeWo melanoma, at least 50%; in data set [3] it was at least 50%; in the data set with HeLa cervix uteri, 30 to 50%; in the data set with A2780 ovarian it was at least 50%; in the data set on A498 renal, 30 to 50%. The inhibition at 0.5 µM in the data set on U87MG glioblastoma, with HCT116 colon and in the data set on MiaPaCa2 pancreas was at least 50% throughout. The IC50 is 100 to 500 nM in [1] and below 50 nM at Hsp90.
